Measurements: US20060040992A1, “Antiinflammatory 3-arylthio-3-thiazolyl-alkylamines” (AstraZeneca AB, priority 2002, published 2006)

Biological target: T1, nitric oxide synthase (Mus musculus, UniProt P29477)
T1 construct: The reaction is started by adding 50 μl of cell lysate (prepared as above); endogenous in cells; host or cells: J774A-1 murine macrophage cell line, induced with LPS and IFN-gamma; crude cell lysate
Assay: Screen 1: nitric oxide synthase inhibition, 3H-L-arginine to 3H-L-citrulline conversion, lysate of induced J774A-1 cells
Format: biochemical
Conditions: enzyme from IFNg/LPS-induced murine macrophage J774A-1 cell lysate; 1 hour at room temperature; read-out: IC50 (concentration of drug substance which gives 50% enzyme inhibition in the assay)
Procedure: The activity of compounds of formula (I), or a pharmaceutically acceptable salt thereof, may be screened for nitric oxide synthase inhibiting activity by a procedure based on that of Förstermann et al., Eur. J. Pharm., 1992, 225, 161-165. Nitric oxide synthase converts ^3H-L-arginine into ^3H-L-citrulline which can be separated by cation exchange chromatography and quantified by liquid scintillation counting.
Enzyme is prepared, after induction, from the cultured murine macrophage cell line J774A-1 (obtained from the laboratories of the Imperial Cancer Research Fund). J774A-1 cells are cultured in Dulbeccos Modified Eagles Medium (DMM) supplemented with 10% foetal bovine serum, 4 mM L-glutamine and antibiotics (100 units/ml penicillin G, […] & […] amphotericin B). Cells are routinely grown in […] flasks is containing 35 ml medium kept at 37° C. and in a humidified atmosphere containing 5% CO2. […]
Labelled L-citrulline is separated from labelled L-arginine using Dowex AG-50W. […] After allowing the samples to dry the L-citruulline is quantified by scintillation counting.
In a typical experiment basal activity is 300 dpm per 75 μl sample which is increased to 1900 dpm in the reagent controls. […] Compounds are tested at a range of concentrations and from the inhibitions obtained IC50 values are calculated. […]

With N=C(N)NN [arninoguanidine] the IC50 was 10 µM.
